≈ marks a conversion by molar mass, not a printed value. Where “and” joins values, the source holds several entries; their conditions need not be identical. Equal entries are not always repeated. Where two headings read alike, the source gives them in different places.
Assays:
Format in all cases: physicochemical
[1] = Particle size distribution (PSD) of Compound 1 before and after manual or jet milling (Sympatec HELOS, dry method)
Method: Compound 1 was milled by manual milling or jet milling to reduce particle size. For manual milling, Compound 1 was weighed into a ceramic motor and gentle milled for ˜5 mins. Particle size distribution (PSD) of Compound 1 indicated D90=77.82 μm and D90=28.27 μm before and after manual milling of Compound 1. PSD via dry method was conducted by Sympatec HELOS particle size analyzer, and dispersing system and pressure were RODOS and 0.5 bar, respectively.
For jet milling, Compound 1 was micronized by jet milling with a yield of ˜90%. Particle size of the jet-milled material was reduced to a D90 range of 4.7 to 13.5 μm.

[2] = Solubility of Compound 1 in solution formulation vehicles (visual); details: for solubility: organic solvent or mixture, thermodynamic from solid, read-out: maximum solubility (visually determined)
Method: 2400 μL PEG 400 was added to a 8 mL glass vial together with 3 mg of Compound 1 and mixed together by Vortex and sonicated for 5 min. Then 600 μL Cremophor RH40 was added to the container, mixed together by Vortex and sonicated for 5 min. Then 3000 μL water was added to the container, mixed together by Vortex and sonicated for 5 min.
About 15 mg compound were weighted to a 8 mL glass container and then 2 mL Prototype 2a was added to the glass container. The contents were mixed together by vortexing and sonication for 5 min.
About 15 mg compound was weighed to an 8 mL glass containers and then 2 mL of Prototype 2b was added to the container and mixed together by vortex and sonicated for 5 min. […] in Prototype 2b with 7.5 mg/mL was not clear. Then another 140 μL of Prototype 2b vehicle was added to the container and mixed together by vortex and sonicated for 5 min.
600 μL PEG 400 was added to a 4 mL glass vial together with 3 mg of Compound 1 and mixed together by Vortex and sonicated for 5 min. Then 150 μL Cremophor RH40 was added to the container and mixed together by Vortex and sonicated for 5 min. Then 750 μL water was added to the container and mixed together by vortexing and sonicated for 5 min.
(§1) Cremophor RH40, Capmul MCM Co, Triethylcitrate and Ethanol were added together on a weight basis to a glass container and mixed together to form a solution mixture. […] Additional Compound 1 was added with vortexing and sonication until Compound 1 was no longer soluble. The resulting maximum solubility was visually determined to be between 25 and 50 mg/mL.
as §1, with “Capryol 90, Labrasol” for “Cremophor RH40, Capmul MCM Co, Triethylcitrate”, “Transcutol HP” for “Ethanol”, “volumetric” for “weight”, “60” for “25”, “80” for “50”

[3] = Stability of suspension formulations in methylcellulose/Poloxamer 188 vehicles (appearance, concentration, purity, PSD); set-up: key: *: homogeneous suspension initially, sedimentation occurred over time and returned to homogeneous after gentle agitation; #: viscous homogeneous suspension initially, sedimentation occurred over time and returned to homogeneous after gentle agitation
Method: As shown in Tables 9-11, various suspension formulations were tested for stability under different conditions.
To prepare a suspension weigh required amount of milled Compound 1 into a glass container and add corresponding volume of the vehicle. Thoroughly disperse the compound into a homogenous suspension using an overhead mixer at the final concentration target. Concentrations were prepared at 0.1 mg/mL and at 10 mg/mL. The suspension products were physically evaluated on visual appearance, concentration, purity and PSD.
The vehicles are prepared by dissolving 0.5% by weight of either 400 cP methylcellulose or 4000 cP methylcellulose and 0.2% Poloxamer 188. For the preserved suspensions, additionally 1.0% by volume of paraben preservative solution was dissolved into vehicle using an overhead mixer. The paraben preservative solution was prepared by dissolving 0.10 g methyl paraben, 0.025 g propylparaben in 9.875 g propylene glycol dissolved by mixing with a stir bar at room temperature for 1 hour.

D10 ([1]; after jet milling, batch 1): 0.7 μm | D50 ([1]; after jet milling, batch 1): 1.8 μm | D90 ([1]; after jet milling, batch 1): 4.7 μm | D10 ([1]; after jet milling, batch 2): 1.1 μm | D50 ([1]; after jet milling, batch 2): 3.7 μm | D90 ([1]; after jet milling, batch 2): 8.3 μm | D10 ([1]; after jet milling, batch 3): 0.87 μm | D50 ([1]; after jet milling, batch 3): 5.58 μm | D90 ([1]; after jet milling, batch 3): 13.5 μm | D10 ([1]; after manual milling): 0.8 μm | D50 ([1]; after manual milling): 3.6 μm | D90 ([1]; after manual milling): 28.27 μm and 28.3 μm | D10 ([1]; before milling): 1.8 μm | D50 ([1]; before milling): 22.2 μm | D90 ([1]; before milling): 77.82 μm and 77.8 μm | D10 ([1]; before milling, batch 1): 1.8 μm | D50 ([1]; before milling, batch 1): 15.4 μm | D90 ([1]; before milling, batch 1): 80.9 μm | D10 ([1]; before milling, batch 2): 13.2 μm | D50 ([1]; before milling, batch 2): 67.3 μm | D90 ([1]; before milling, batch 2): 162.1 μm | D10 ([1]; before milling, batch 3): 14.6 μm | D50 ([1]; before milling, batch 3): 56.8 μm | D90 ([1]; before milling, batch 3): 104 μm | dissolution in vehicle (visual) ([2]; Prototype 1: 40% PEG 400/10% Cremophor RH40/50% Water, 0.5 mg/mL): dissolved completely | dissolution in vehicle (visual) ([2]; Prototype 2a vehicle, 7.5 mg/mL): clear solution | dissolution in vehicle (visual) ([2]; Prototype 2b vehicle, 7.5 mg/mL): not clear | dissolution in vehicle (visual) ([2]; Prototype 3, 2 mg/mL): dissolved completely | solubility ([2]; Prototype 4 solution formulation vehicle, Prototype 4: 36% Cremophor RH40+45% Capmul MCM C8+9% Triethylcitrate+10% Ethanol): 25 to 50 mg/mL (≈ 61.4 to 123 mM) | solubility ([2]; Prototype 5 solution formulation vehicle, Prototype 5: 40 Capryol 90+20% Labrasol+40% Transcutol HP): 60 to 80 mg/mL (≈ 147 to 196 mM) | Visual Appearance ([3]; 0.5% 400 cP MC, 0.2% Poloxamer 188, 0.1 mg/mL, 1 h at RT): * | Visual Appearance ([3]; 0.5% 400 cP MC, 0.2% Poloxamer 188, 0.1 mg/mL, 4 h at RT): * | Visual Appearance ([3]; 0.5% 400 cP MC, 0.2% Poloxamer 188, 0.1 mg/mL, 24 h at RT): * | Visual Appearance ([3]; 0.5% 400 cP MC, 0.2% Poloxamer 188, 10 mg/mL, 1 h at RT): * | Visual Appearance ([3]; 0.5% 400 cP MC, 0.2% Poloxamer 188, 10 mg/mL, 4 h at RT): * | Visual Appearance ([3]; 0.5% 400 cP MC, 0.2% Poloxamer 188, 10 mg/mL, 24 h at RT): * | Visual Appearance ([3]; 0.5% 400 cP MC, 0.2% Poloxamer 188 and 1.0% of paraben preservative solution, 0.1 mg/mL, 1 h at RT): * | Visual Appearance ([3]; 0.5% 400 cP MC, 0.2% Poloxamer 188 and 1.0% of paraben preservative solution, 0.1 mg/mL, 4 h at RT): * | Visual Appearance ([3]; 0.5% 400 cP MC, 0.2% Poloxamer 188 and 1.0% of paraben preservative solution, 0.1 mg/mL, 24 h at RT): * | Visual Appearance ([3]; 0.5% 400 cP MC, 0.2% Poloxamer 188 and 1.0% of paraben preservative solution, 10 mg/mL, 1 h at RT): * | Visual Appearance ([3]; 0.5% 400 cP MC, 0.2% Poloxamer 188 and 1.0% of paraben preservative solution, 10 mg/mL, 4 h at RT): * | Visual Appearance ([3]; 0.5% 400 cP MC, 0.2% Poloxamer 188 and 1.0% of paraben preservative solution, 10 mg/mL, 24 h at RT): * | Visual Appearance ([3]; 0.5% 4000 cP MC, 0.2% Poloxamer 188, 0.1 mg/mL, 1 h at RT): # | Visual Appearance ([3]; 0.5% 4000 cP MC, 0.2% Poloxamer 188, 0.1 mg/mL, 4 h at RT): # | Visual Appearance ([3]; 0.5% 4000 cP MC, 0.2% Poloxamer 188, 0.1 mg/mL, 24 h at RT): # | Visual Appearance ([3]; 0.5% 4000 cP MC, 0.2% Poloxamer 188, 10 mg/mL, 1 h at RT): # | Visual Appearance ([3]; 0.5% 4000 cP MC, 0.2% Poloxamer 188, 10 mg/mL, 4 h at RT): # | Visual Appearance ([3]; 0.5% 4000 cP MC, 0.2% Poloxamer 188, 10 mg/mL, 24 h at RT): # | Visual Appearance ([3]; 0.5% 4000 cP MC, 0.2% Poloxamer 188 and 1.0% of paraben preservative solution, 0.1 mg/mL, 1 h at RT): # | Visual Appearance ([3]; 0.5% 4000 cP MC, 0.2% Poloxamer 188 and 1.0% of paraben preservative solution, 0.1 mg/mL, 4 h at RT): # | Visual Appearance ([3]; 0.5% 4000 cP MC, 0.2% Poloxamer 188 and 1.0% of paraben preservative solution, 0.1 mg/mL, 24 h at RT): # | Visual Appearance ([3]; 0.5% 4000 cP MC, 0.2% Poloxamer 188 and 1.0% of paraben preservative solution, 10 mg/mL, 1 h at RT): # | Visual Appearance ([3]; 0.5% 4000 cP MC, 0.2% Poloxamer 188 and 1.0% of paraben preservative solution, 10 mg/mL, 4 h at RT): # | Visual Appearance ([3]; 0.5% 4000 cP MC, 0.2% Poloxamer 188 and 1.0% of paraben preservative solution, 10 mg/mL, 24 h at RT): #
SMILES: CCOC(F)(F)c1nnc2cnc(-c3cnc(OCC(F)(F)F)c(F)c3)cn12 [Compound 1, 3-(ethoxydifluoromethyl)-6-(5-fluoro-6-(2,2,2-trifluoroethoxy)pyridin-3-yl)-[1,2,4]triazolo[4,3-a]pyrazine]
